This is an account of results in patent US20230159453A1 (COCRYSTAL PHARMA, INC., priority 2020, published 2023).

Molecules are shown by their SMILES.

The target of this assay is SARS2 protease (Severe acute respiratory syndrome coronavirus 2, UniProt P0DTD1). Description: SARS-CoV-2 protease inhibition assay (SARS2 FRET protease assay). The settings on record: SARS-CoV-2 protease 25 nM, FRET, peptide substrate 1.3 μM, 30 minutes at 30° C., compounds 20 μM to 1.0 nM; read-out: IC50. It is filed as biochemical.

The IC50 is the concentration at which inhibition is half-maximal. For `O=C[C@H](C[C@@H]1CCNC1=O)NC(=O)[C@H](CC1CCCCC1)NC(=O)OC(Cc1cccc(Cl)c1)c1cccc(Cl)c1` (stereo partly drawn) [Compound C272, 1,2-Bis(3-chlorophenyl)ethyl ((S)-3-cyclohexyl-1-oxo-1-(((S)-1-oxo-3-((S)-2-oxopyrrolidin-3-yl)propan-2-yl)amino)propan-2-yl)carbamate], the IC50 is 320 nM. As for `CCCCCCOC(=O)N[C@@H](CC1CCCCC1)C(=O)N[C@H](C=O)CCC(=O)N1CCOc2ccccc2C1` [Compound C26, Hexyl ((S)-3-cyclohexyl-1-(((S)-5-(2,3-dihydrobenzo[f][1,4]oxazepin-4(5H)-yl)-1,5-dioxopentan-2-yl)amino)-1-oxopropan-2-yl)carbamate], the figure is over 200000 nM; as for `O=CC(CC1CC2(CCOCC2)NC1=O)NC(=O)[C@H](CC1CCCCC1)NC(=O)OC1CCCC1Cc1cccc(Cl)c1` (stereo partly drawn) [Compound C225, 2-(3-chlorobenzyl)cyclopentyl ((2S)-3-cyclohexyl-1-oxo-1-((1-oxo-3-(2-oxo-8-oxa-1-azaspiro[4.5]decan-3-yl)propan-2-yl)amino)propan-2-yl)carbamate], 1010 nM; as for `CN(CCc1ccccc1)C(=O)CC[C@@H](C=O)NC(=O)[C@H](CC1CCCCC1)NC(=O)OC1(c2cccc(Cl)c2)CC1` [Compound C10, 1-(3-Chlorophenyl) cyclopropyl ((S)-3-cyclohexyl-1-(((S)-5-(methyl (phenethyl)amino)-1,5-dioxopentan-2-yl)amino)-1-oxopropan-2-yl) carbamate], over 200000 nM. To `CC(C)(c1cccc(Cl)c1)C(OC(=O)N[C@@H](CC1CCCCC1)C(=O)N[C@H](C=O)C[C@@H]1CCNC1=O)c1ccc2ccccc2c1` (some centres unmarked) [Compound C127] belongs 3.6 nM; to `CC(C)(c1cccc(Cl)c1)C(OC(=O)N[C@@H](CC1CCCCC1)C(=O)N[C@@H](C[C@@H]1CCNC1=O)C(=O)C(N)=O)c1ccc(Cl)cc1` (stereo partly drawn) [Compound C134, 2-(3-Chlorophenyl)-1-(4-chlorophenyl)-2-methylpropyl ((S)-1-(((S)-4-amino-3,4-dioxo-1-((S)-2-oxopyrrolidin-3-yl)butan-2-yl)amino)-3-cyclohexyl-1-oxopropan-2-yl)carbamate], 767 nM; to `O=CC(CC1CC2(CCC2)NC1=O)NC(=O)[C@H](CC1CCCCC1)NC(=O)OCc1cccc(Cl)c1` (stereo partly drawn) [Compound C229, 3-Chlorobenzyl ((2S)-3-cyclohexyl-1-oxo-1-((1-oxo-3-(6-oxo-5-azaspiro[3.4]octan-7-yl)propan-2-yl)amino)propan-2-yl)carbamate], 0.8 nM.

In the case of `CCOP(=O)(OCC)C(O)[C@H](CC1CCNC1=O)NC(=O)[C@H](Cc1ccccc1)NC(=O)OCc1cccc(Cl)c1` (some centres unmarked) [Compound C36], the IC50 worked out at 2500 nM. As for `CC(C)(c1cccc(Cl)c1)[C@@H](OC(=O)N[C@@H](CC1CCCCC1)C(=O)N[C@@H](C[C@@H]1CCNC1=O)C(=O)C(N)=O)c1cccc(F)c1` [Compound C182], the figure is 2470 nM.

Regarding `CCCCCCOC(=O)N[C@@H](CC1CCCCC1)C(=O)N[C@@H](CCC(=O)N1CCOc2ccccc2C1)C(O)P(=O)(OCC)OCC` (stereo partly drawn) [Compound C7, Hexyl ((2S)-3-cyclohexyl-1-(((2S)-1-(diethoxyphosphoryl)-5-(2,3-dihydrobenzo[f][1,4]oxazepin-4(5H)-yl)-1-hydroxy-5-oxopentan-2-yl)amino)-1-oxopropan-2-yl)carbamate], the IC50 is over 200000 nM. Take `CC(C)(c1cccc(Cl)c1)C(OC(=O)N[C@@H](CC1CCCCC1)C(=O)N[C@@H](C[C@@H]1CCNC1=O)C(=O)C(=O)NC1CC1)c1ccccc1Cl` (stereo partly drawn) [Compound C186, 1-(2-Chlorophenyl)-2-(3-chlorophenyl)-2-methylpropyl ((S)-3-cyclohexyl-1-(((S)-4-(cyclopropylamino)-3,4-dioxo-1-((S)-2-oxopyrrolidin-3-yl)butan-2-yl)amino)-1-oxopropan-2-yl) carbamate]: the IC50 amounted to 1240 nM. With `CC(=O)N1CCC2(CC1)CC(CC(C=O)NC(=O)[C@H](CC(C)C)NC(=O)OCC1CCC(F)(F)CC1)C(=O)N2` (stereo partly drawn) [Compound C64, (4,4-Difluorocyclohexyl)methyl ((2S)-1-((1-(8-acetyl-2-oxo-1,8-diazaspiro[4.5]decan-3-yl)-3-oxopropan-2-yl)amino)-4-methyl-1-oxopentan-2-yl)carbamate], the IC50 came out at 100 nM.

In the case of `CC(C)C[C@H](NC(=O)OC(c1ccc(F)cc1)C(C)(C)c1cccc(Cl)c1)C(=O)N[C@@H](C[C@@H]1CCNC1=O)C(=O)C(=O)NC1CC1` (some centres unmarked) [Compound C247], the IC50 was found to be 80 nM. As for `CC(C)C[C@H](NC(=O)OC1(Cc2ccccc2)CC1)C(=O)N[C@H](C=O)C[C@@H]1CCNC1=O` [Compound C44, 1-Benzylcyclopropyl ((S)-4-methyl-1-oxo-1-(((S)-1-oxo-3-((S)-2-oxopyrrolidin-3-yl)propan-2-yl)amino)pentan-2-yl) carbamate], the figure is 331 nM. On to `CC(C)(c1cccc(Cl)c1)C(OC(=O)N[C@@H](CC1CCCCC1)C(=O)N[C@@H](C[C@@H]1CCNC1=O)C(=O)C(N)=O)c1ccccc1` (stereo partly drawn) [Compound C113, 2-(3-Chlorophenyl)-2-methyl-1-phenylpropyl ((S)-1-(((S)-4-amino-3,4-dioxo-1-((S)-2-oxopyrrolidin-3-yl)butan-2-yl)amino)-3-cyclohexyl-1-oxopropan-2-yl) carbamate], for which the IC50 was determined as 133 nM. To `CC(=O)N1CCC2(CC1)CC(CC(C=O)NC(=O)[C@H](CC1CCCCC1)NC(=O)OCc1cccc(Cl)c1)C(=O)N2` (stereo partly drawn) [Compound C32, 3-Chlorobenzyl ((2S)-1-((1-(8-acetyl-2-oxo-1,8-diazaspiro[4.5]decan-3-yl)-3-oxopropan-2-yl)amino)-3-cyclohexyl-1-oxopropan-2-yl)carbamate] belongs 23 nM. As for `CC(C)C[C@H](NC(=O)OC1CCN(C(=O)OC(C)(C)C)CC1)C(=O)N[C@@H](C[C@@H]1CCNC1=O)C(O)S(=O)(=O)O` (stereo partly drawn) [Compound C51, (2S)-2-((S)-2-((((1-(tert-butoxycarbonyl)piperidin-4-yl)oxy)carbonyl)amino)-4-methylpentanamido)-1-hydroxy-3-((S)-2-oxopyrrolidin-3-yl) propane-1-sulfonate], the figure is 115 nM; as for `CCOP(=O)(OCC)C(O)C(CC1CC(Cc2ccccc2)NC1=O)NC(=O)[C@H](CC1CCCCC1)NC(=O)OCc1cccc(Cl)c1` (stereo partly drawn) [Compound C41, 3-Chlorobenzyl ((2S)-1-((3-(5-benzyl-2-oxopyrrolidin-3-yl)-1-(diethoxyphosphoryl)-1-hydroxypropan-2-yl)amino)-3-cyclohexyl-1-oxopropan-2-yl)carbamate], 308 nM; as for `CC(C)C[C@H](NC(=O)OCC(C)(C)c1cccc(Cl)c1)C(=O)N[C@H](CO)C[C@@H]1CCNC1=O` [Compound C101, 2-(3-Chlorophenyl)-2-methylpropyl ((S)-1-(((S)-1-hydroxy-3-((S)-2-oxopyrrolidin-3-yl)propan-2-yl)amino)-4-methyl-1-oxopentan-2-yl)carbamate], over 20000 nM. To `O=C(N[C@@H](CC1CCCCC1)C(=O)N[C@@H](C[C@@H]1CCNC1=O)C(O)S(=O)(=O)O)OC(Cc1cccc(Cl)c1)c1ccccc1` (stereo partly drawn) [Compound C115, Sodium (2S)-2-((2S)-2-(((2-(3-chlorophenyl)-1-phenylethoxy)carbonyl)amino)-3-cyclohexylpropanamido)-1-hydroxy-3-((S)-2-oxopyrrolidin-3-yl)propane-1-sulfonate] belongs 15.7 nM; to `CC1(C)CC(C[C@@H](C=O)NC(=O)[C@H](CC2CCCCC2)NC(=O)OC(Cc2cccc(Cl)c2)c2cccc(Cl)c2)C(=O)N1` (stereo partly drawn) [Compound C162, 1,2-Bis(3-Chlorophenyl)ethyl ((2S)-3-cyclohexyl-1-((1-(5,5-dimethyl-2-oxopyrrolidin-3-yl)-3-oxopropan-2-yl)amino)-1-oxopropan-2-yl)carbamate], 92.2 nM. In the case of `O=C(N[C@@H](CC1CCCCC1)C(=O)NC(CC1CC2(CCOCC2)NC1=O)C(=O)C(=O)NC1CC1)OCc1cccc(Cl)c1` (stereo partly drawn) [Compound C176, 3-Chlorobenzyl ((2S)-3-cyclohexyl-1-((4-(cyclopropylamino)-3,4-dioxo-1-(2-oxo-8-oxa-1-azaspiro[4.5]decan-3-yl)butan-2-yl)amino)-1-oxopropan-2-yl)carbamate], the IC50 came out at 1570 nM.

On to `CC(C)C[C@H](NC(=O)OCC(C)(C)c1cccc(Cl)c1)C(=O)NC(C)(C=O)CC1CCNC1=O` (stereo partly drawn) [Compound C83, 2-(3-Chlorophenyl)-2-methylpropyl ((2S)-4-methyl-1-((2-methyl-1-oxo-3-(2-oxopyrrolidin-3-yl)propan-2-yl)amino)-1-oxopentan-2-yl) carbamate], for which the IC50 worked out at 1300 nM. For `CC(C)(c1cccc(Cl)c1)C(OC(=O)N[C@@H](CC1CCCCC1)C(=O)N[C@@H](C[C@@H]1CCNC1=O)C(=O)C(=O)NC1CC1)c1ccc(F)cc1` (stereo partly drawn) [Compound C144, 2-(3-Chlorophenyl)-1-(4-fluorophenyl)-2-methylpropyl ((S)-3-cyclohexyl-1-(((S)-4-(cyclopropylamino)-3,4-dioxo-1-((S)-2-oxopyrrolidin-3-yl)butan-2-yl)amino)-1-oxopropan-2-yl) carbamate], the IC50 came out at 2020 nM. As for `CC(C)C[C@H](NC(=O)OC(c1ccccc1)C(C)(C)c1cccc(Cl)c1)C(=O)N[C@H](C=O)C[C@@H]1CCNC1=O` (stereo partly drawn) [Compound C108, 2-(3-Chlorophenyl)-2-methyl-1-phenylpropyl ((S)-4-methyl-1-oxo-1-(((S)-1-oxo-3-((S)-2-oxopyrrolidin-3-yl)propan-2-yl)amino)pentan-2-yl) carbamate], the figure is 1.2 nM. As for `CCOP(=O)(OCC)C(O)[C@H](CC(C)C(=O)N1CCOc2ccccc2C1)NC(=O)[C@H](CC1CCCCC1)NC(=O)OCc1cccc(Cl)c1` (stereo partly drawn) [Compound C11, 3-chlorobenzyl ((2S)-3-cyclohexyl-1-(((2S)-1-(diethoxyphosphoryl)-5-(2,3-dihydrobenzo[f][1,4]oxazepin-4(5H)-yl)-1-hydroxy-4-methyl-5-oxopentan-2-yl)amino)-1-oxopropan-2-yl)carbamate], the IC50 was over 200000 nM.
